One assay addresses Keap1/Nrf2 (Homo sapiens, UniProt Q14145). Nature of the assay: Keap1-Nrf2 protein-protein interaction inhibitors, dose response, biochemical, fluorescence polarization, cherry-picked samples (AID 588683).
Assay [1] has as its target Glutathione-S-transferase (Schistosoma japonicum, UniProt Q26513). Nature of the assay: biotin-GST/anti-GST TR-FRET signal inhibitors, dose response, artefact control for Vif-APOBEC3G degradation inhibitor project, biochemical (AID 1117362). The assay is classed as functional.
In another assay the test system is Danio rerio. Briefly: In Vivo Angiogenesis Dose-Response Confirmation. [Related pubchem assays: 732 (Assay preceding this confirmatory assay.)]. The assay is classed as functional, organism-based.
For a further assay, the target named is T1, Leucine aminopeptidase (Plasmodium falciparum 3D7, UniProt Q8IL11).
T1 sequence (Q8IL11 whole entry): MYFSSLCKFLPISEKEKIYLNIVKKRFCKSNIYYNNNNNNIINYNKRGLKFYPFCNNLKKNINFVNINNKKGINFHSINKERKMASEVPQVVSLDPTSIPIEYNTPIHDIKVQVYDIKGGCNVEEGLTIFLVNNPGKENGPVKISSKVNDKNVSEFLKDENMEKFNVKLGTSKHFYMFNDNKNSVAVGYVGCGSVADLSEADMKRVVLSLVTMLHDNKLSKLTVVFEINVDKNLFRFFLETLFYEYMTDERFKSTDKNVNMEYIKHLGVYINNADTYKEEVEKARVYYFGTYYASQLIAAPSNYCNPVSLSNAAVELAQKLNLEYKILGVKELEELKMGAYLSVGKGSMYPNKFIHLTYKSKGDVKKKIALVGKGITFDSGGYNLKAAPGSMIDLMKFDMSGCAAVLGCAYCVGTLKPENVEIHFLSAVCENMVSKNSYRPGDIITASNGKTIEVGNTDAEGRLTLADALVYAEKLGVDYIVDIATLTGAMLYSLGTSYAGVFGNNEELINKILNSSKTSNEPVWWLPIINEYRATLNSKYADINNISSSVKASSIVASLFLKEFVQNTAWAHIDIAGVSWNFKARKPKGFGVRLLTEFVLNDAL
Briefly: P. falciparum M17LAP inhibitors, primary screen, biochemical, fluorogenic H-Leu-NHMec substrate, 1536-well (AID 1619). The assay is classed as functional.

In assay [2] the target is Heat shock protein HSP 90-alpha (Homo sapiens, UniProt P07900). Briefly: Luminescence-based dose response biochemical high throughput screening assay for inhibitors of the Heat Shock Protein 90 (HSP90). [Related pubchem assays: 1831 (Summary AID.), 1846 (Confirmation screen.), 1789 (Primary screen.)].
Assay [3] deals with Bifunctional protein GlmU (Mycobacterium tuberculosis, UniProt P9WMN3). Nature of the assay: Inhibitors of Mycobacterial Glucosamine-1-phosphate acetyl transferase (GlmU). Secondary screen. More on the design: species or system Mycobacterium tuberculosis H37Rv.
The target in assay [4] is T2, Carboxy-terminal domain RNA polymerase II polypeptide A small phosphatase 1 (Homo sapiens, UniProt Q9GZU7).
T2 sequence (Q9GZU7 whole entry): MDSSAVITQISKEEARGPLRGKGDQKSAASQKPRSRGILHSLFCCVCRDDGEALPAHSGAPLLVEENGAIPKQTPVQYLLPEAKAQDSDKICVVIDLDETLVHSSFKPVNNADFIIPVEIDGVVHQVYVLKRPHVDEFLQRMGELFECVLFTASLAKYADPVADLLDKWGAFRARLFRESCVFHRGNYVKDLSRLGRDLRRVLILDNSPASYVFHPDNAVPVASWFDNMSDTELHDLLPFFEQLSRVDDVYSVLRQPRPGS
Briefly: inhibitors of CTDSP1, concentration-response testing, biochemical assay, absorbance-based, actives from ultra-high-throughput screening (AID 540297). The assay is classed as functional.

In the next assay the target is Genome polyprotein (dengue virus type 2, UniProt P29990). Briefly: Dengue-2 NS5 methyltransferase inhibitors, primary screen, biochemical, confirmation dose response (AID 588689). The assay is classed as functional.
Assay [5] concerns the target Dual specificity protein phosphatase 3 (Homo sapiens, UniProt P51452). Briefly: VHR phosphatase inhibition, dose response, selectivity assay for STEP inhibitor project, biochemical (AID 602374). The assay is classed as functional. The note with it: read-out: IC50_Mean.
Assay [6] has as its target Tyrosine-protein phosphatase non-receptor type 11 (Homo sapiens, UniProt Q06124). Nature of the assay: SHP2 phosphatase inhibition, dose response, selectivity assay for STEP inhibitor project, biochemical (AID 602367). The conditions noted are these: read-out: IC50_Mean. The assay is classed as functional.
The target of assay [7] is Tyrosine-protein phosphatase non-receptor type 5 (Homo sapiens, UniProt P54829). Nature of the assay: STEP phosphatase inhibitors, confirmation, biochemical, fluorescence intensity, uHTS hits (AID 602372). The assay is classed as functional. The conditions noted are these: read-out: IC50_Mean.
The nature of assay [8]: Mtb BioA inhibitors by displacement, dose response, biochemical, coupled fluorescence displacement, 20-point, dry powder (AID 743357). The assay is classed as functional.
The target of assay [9] is G-protein coupled receptor 183 (Homo sapiens, UniProt P32249). Briefly: SAR confirmation of small molecule antagonists of the EBI2 receptor via a luminescent beta-arrestin assa. The assay is classed as functional.
Assay [10] can be described thus: P. falciparum Dd2 growth inhibitors, dose response, SYBR Green, dry powder samples (AID 1159566).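 Further: potency for growth inhibition with lower SYBR green DNA signal.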 The assay is classed as functional, cell-based.
Assay [11] can be described thus: P. falciparum Dd2 growth inhibitors, dose response, SYBR Green, cherry-picked samples (AID 1159567). The assay is classed as functional, cell-based.
Assay [12] in a line: P. falciparum 3D7-ScDHODH growth inhibitors, dose response, SYBR Green, dry powder samples (AID 1159570).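 Further: parasite growth measured after 72 hours of compound exposure.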 The assay is classed as functional, cell-based.
Assay [13] can be described thus: HepG2 cell cytotoxicity, dose response, cytotoxicity control, cherry-picked samples (AID 1159577). The assay is classed as functional, cell-based.
Assay [14] can be described thus: P. falciparum ATP4 D1247Y mutant growth inhibitors, dose response, NITD609-resistant line, SYBR Green, dry powder (AID 1159571).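 Further: parasites synchronized at ring stage by sorbitol before testing.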 The assay is classed as functional, cell-based.
Assay [15] is described as follows: A375 melanoma cell viability loss, dose response, counter-screen for MITF modulator project, CellTiter-Glo luminescence, dry powder, set 9 (AID 651591). The assay is classed as functional, cell-based. The note with it: A-375.
A short description of assay [16]: SK-MEL-5 parental line viability, dose response, MITF inhibitor project, cell-based, CellTiter-Glo, dry powder, set 6 (AID 624429). The assay is classed as functional.
The nature of assay [17]: MALME3 melanoma cell viability reduction, dose response, orthogonal assay for MITF inhibitor project, CellTiter-Glo luminescence, dry powder, set 5 (AID 651584). The assay is classed as functional, cell-based. The conditions noted are these: MALME-3. (In general: Cellular ATP, detected with luciferase, serves as a proxy for viable cell number.)
Assay [18] in a line: MITF Measured in Cell-Based System Using Plate Reader - 2084-01_Inhibitor_Dose_DryPowder_Activity_Set6. The assay is classed as functional.
The nature of assay [19]: A375 melanoma cell viability loss, dose response, counter-screen for MITF inhibitor project, CellTiter-Glo luminescence, dry powder, set 4 (AID 624364).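 Further: A375 melanoma cells are MITF independent so this is a counter screen.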 The assay is classed as functional, cell-based. The conditions noted are these: A-375. (In general: The purpose of a counterscreen is to sort out artefacts and off-target activity.)
Assay [20] is described as follows: MITF Measured in Cell-Based System Using Plate Reader - 2084-01_Inhibitor_Dose_DryPowder_Activity_Set7. The assay is classed as functional.
A short description of assay [21]: SK-MEL-5 parental cell viability reduction, dose response, orthogonal assay for MITF inhibitor project, CellTiter-Glo luminescence, dry powder, set 8 (AID 651586). The assay is classed as functional, cell-based.
Assay [22] can be described thus: MITF Orthogonal Assay: SK-MEL-5 CTG Assay Measured in Cell-Based System Using Plate Reader - 2084-02_Inhibitor_Dose_DryPowder_Activity_Set5. The assay is classed as functional.
Assay [23] can be described thus: cytotoxicity in primary human melanocytes, dose response, cytotoxicity control, cell-based, plate reader, dry powder (AID 651920). The assay is classed as functional.
The nature of assay [24]: TRPM1 promoter luciferase reporter signal decrease, dose response, MITF inhibitor project, cell-based, SK-MEL-5, dry powder, set 9 (AID 651588). The assay is classed as functional. On the technique in general: Reporter assays use an easily measured gene product as a stand-in for the process of interest.
Assay [25] in a line: A375 melanoma cell cytotoxicity, dose response, counter-screen for MITF inhibitor project, CellTiter-Glo luminescence, dry powder, set 2 (AID 624489).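 Further: actives are compounds lowering A375 viability meaning general cytotoxicity.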 The conditions noted are these: A-375. The assay is classed as functional, cell-based.
A short description of assay [26]: MITF Orthogonal Assay: MALME3 CTG Assay Measured in Cell-Based System Using Plate Reader - 2084-04_Inhibitor_Dose_DryPowder_Activity_Set6. The assay is classed as functional. The note with it: MALME-3.
Assay [27] can be described thus: A375 melanoma cell cytotoxicity, dose response, counter-screen for MITF inhibitor project, CellTiter-Glo luminescence, dry powder, set 6 (AID 624488). The note with it: A-375. The assay is classed as functional, cell-based.
Assay [28] can be described thus: A375 melanoma cell cytotoxicity, dose response, counter-screen for MITF inhibitor project, CellTiter-Glo luminescence, dry powder, set 7 (AID 624490). The assay is classed as functional, cell-based. The conditions noted are these: A-375.

Calls of active or inactive are those of the source. Where only a bound is given, the exact number is not on record here.

Sequence of G-protein coupled receptor 183 (P32249 whole entry): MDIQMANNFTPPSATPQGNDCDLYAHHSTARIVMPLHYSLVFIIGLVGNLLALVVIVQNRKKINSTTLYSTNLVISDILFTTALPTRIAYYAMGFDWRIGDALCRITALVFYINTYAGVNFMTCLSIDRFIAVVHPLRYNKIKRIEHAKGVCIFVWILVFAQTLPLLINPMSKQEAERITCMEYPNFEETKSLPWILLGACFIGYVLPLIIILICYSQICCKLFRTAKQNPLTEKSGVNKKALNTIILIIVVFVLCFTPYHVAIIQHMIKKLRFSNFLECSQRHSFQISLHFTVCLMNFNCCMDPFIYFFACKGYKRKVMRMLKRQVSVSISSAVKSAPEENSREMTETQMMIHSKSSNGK
Sequence of Bifunctional protein GlmU (P9WMN3 whole entry, the tested form may be a part): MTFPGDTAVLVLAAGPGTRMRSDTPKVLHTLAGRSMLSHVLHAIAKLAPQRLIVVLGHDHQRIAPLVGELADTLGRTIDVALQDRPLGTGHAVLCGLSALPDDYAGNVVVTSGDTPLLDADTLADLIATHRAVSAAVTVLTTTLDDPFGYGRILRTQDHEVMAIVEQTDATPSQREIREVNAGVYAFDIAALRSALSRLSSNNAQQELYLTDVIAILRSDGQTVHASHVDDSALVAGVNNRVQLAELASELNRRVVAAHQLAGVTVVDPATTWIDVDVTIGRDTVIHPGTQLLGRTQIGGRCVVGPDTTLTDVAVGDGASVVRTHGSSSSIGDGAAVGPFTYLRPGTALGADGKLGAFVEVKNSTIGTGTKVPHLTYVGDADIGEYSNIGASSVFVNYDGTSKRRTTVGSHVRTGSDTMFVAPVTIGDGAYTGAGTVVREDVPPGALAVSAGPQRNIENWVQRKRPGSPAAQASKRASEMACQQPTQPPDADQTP
Sequence of Tyrosine-protein phosphatase non-receptor type 5 (P54829 whole entry): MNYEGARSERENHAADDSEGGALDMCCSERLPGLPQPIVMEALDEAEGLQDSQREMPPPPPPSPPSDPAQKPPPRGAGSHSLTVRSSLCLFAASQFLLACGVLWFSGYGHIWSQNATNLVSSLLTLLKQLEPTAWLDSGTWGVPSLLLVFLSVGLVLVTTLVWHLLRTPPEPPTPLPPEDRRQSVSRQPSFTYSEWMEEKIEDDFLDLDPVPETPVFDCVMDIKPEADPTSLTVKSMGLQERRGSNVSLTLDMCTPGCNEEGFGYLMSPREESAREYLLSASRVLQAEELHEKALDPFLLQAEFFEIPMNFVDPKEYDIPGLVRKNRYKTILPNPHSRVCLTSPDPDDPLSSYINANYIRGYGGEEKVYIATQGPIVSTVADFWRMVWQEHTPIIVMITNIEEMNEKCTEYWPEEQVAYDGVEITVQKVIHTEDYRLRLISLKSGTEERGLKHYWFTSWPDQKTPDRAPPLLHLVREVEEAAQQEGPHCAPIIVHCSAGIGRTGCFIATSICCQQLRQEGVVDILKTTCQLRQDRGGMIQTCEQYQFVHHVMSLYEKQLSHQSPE
Sequence of Keap1/Nrf2 (Q16236 whole entry): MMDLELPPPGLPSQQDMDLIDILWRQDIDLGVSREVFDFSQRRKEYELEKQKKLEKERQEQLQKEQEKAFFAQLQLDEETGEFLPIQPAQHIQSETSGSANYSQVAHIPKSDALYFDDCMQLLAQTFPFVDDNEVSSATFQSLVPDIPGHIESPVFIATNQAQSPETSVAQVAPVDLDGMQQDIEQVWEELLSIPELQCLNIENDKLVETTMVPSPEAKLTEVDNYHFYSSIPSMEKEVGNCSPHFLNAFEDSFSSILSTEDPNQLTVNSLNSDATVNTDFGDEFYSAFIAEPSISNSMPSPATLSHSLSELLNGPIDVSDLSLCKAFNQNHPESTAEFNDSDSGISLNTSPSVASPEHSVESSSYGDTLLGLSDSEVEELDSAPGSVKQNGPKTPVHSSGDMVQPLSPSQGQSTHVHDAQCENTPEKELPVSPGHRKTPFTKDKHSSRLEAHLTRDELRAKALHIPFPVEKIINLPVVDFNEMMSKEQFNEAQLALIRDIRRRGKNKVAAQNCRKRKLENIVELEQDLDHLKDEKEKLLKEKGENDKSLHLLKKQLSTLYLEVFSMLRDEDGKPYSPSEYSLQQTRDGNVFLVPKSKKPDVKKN
Sequence of Keap1/Nrf2 (Q14145 whole entry): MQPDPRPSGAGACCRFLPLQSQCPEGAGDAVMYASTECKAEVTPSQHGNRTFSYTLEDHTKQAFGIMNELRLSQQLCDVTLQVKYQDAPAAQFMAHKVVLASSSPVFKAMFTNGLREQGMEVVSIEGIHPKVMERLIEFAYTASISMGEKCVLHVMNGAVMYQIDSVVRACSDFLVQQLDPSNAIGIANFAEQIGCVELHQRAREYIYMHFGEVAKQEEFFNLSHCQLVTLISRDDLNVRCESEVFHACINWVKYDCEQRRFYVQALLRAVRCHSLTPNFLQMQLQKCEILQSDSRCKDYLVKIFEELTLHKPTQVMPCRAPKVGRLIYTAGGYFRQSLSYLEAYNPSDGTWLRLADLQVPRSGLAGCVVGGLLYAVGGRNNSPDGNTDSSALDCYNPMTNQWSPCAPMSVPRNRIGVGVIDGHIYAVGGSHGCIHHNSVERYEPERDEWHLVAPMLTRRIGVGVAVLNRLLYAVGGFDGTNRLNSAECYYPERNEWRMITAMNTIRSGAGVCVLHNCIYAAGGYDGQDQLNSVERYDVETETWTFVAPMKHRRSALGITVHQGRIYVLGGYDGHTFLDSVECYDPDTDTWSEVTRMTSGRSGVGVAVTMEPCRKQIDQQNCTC
Sequence of Tyrosine-protein phosphatase non-receptor type 11 (Q06124 whole entry): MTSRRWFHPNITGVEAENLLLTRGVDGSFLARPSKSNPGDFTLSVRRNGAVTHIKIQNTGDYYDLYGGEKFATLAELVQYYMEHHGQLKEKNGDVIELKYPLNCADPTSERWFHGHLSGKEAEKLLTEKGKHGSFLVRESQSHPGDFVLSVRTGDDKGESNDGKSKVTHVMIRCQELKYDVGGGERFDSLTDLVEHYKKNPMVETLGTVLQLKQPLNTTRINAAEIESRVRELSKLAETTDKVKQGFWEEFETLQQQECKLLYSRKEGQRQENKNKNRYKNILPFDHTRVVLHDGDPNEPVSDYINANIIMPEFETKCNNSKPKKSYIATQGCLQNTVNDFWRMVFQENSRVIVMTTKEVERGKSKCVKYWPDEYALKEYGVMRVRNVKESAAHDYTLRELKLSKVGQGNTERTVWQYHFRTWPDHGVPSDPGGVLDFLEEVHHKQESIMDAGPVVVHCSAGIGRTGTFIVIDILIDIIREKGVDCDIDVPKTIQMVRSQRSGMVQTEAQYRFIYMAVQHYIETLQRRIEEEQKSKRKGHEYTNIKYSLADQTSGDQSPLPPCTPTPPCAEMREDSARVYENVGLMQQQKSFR
Sequence of Genome polyprotein (P29990 2492-3391 limits assumed): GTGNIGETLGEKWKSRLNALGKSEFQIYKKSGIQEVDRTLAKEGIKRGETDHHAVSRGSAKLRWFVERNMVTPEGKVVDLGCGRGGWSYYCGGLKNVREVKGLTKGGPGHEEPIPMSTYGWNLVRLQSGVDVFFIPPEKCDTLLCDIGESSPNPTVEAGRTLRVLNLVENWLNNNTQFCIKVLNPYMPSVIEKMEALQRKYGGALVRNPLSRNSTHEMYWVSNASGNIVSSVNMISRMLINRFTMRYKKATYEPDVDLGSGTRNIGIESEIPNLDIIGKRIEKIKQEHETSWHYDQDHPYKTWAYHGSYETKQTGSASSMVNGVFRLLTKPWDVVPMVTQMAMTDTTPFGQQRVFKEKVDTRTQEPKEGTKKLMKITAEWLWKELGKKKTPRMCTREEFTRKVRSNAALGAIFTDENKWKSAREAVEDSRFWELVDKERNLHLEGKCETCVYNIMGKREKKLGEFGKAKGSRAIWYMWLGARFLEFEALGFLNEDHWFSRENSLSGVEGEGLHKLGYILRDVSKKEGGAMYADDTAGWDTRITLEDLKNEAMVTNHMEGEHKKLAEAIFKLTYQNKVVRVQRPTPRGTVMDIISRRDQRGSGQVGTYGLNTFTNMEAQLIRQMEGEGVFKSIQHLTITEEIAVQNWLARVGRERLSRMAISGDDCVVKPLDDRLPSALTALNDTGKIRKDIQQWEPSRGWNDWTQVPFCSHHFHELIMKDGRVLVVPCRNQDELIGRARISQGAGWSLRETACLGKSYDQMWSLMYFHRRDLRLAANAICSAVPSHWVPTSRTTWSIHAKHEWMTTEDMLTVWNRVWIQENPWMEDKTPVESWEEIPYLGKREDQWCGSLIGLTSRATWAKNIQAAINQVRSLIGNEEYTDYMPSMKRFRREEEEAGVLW
Sequence of Dual specificity protein phosphatase 3 (P51452 whole entry): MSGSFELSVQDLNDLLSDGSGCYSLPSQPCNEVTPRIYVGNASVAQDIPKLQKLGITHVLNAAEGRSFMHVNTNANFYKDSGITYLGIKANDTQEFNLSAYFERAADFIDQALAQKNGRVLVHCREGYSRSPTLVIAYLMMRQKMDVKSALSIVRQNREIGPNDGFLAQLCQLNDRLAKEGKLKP
Sequence of Glutathione-S-transferase (Q26513 whole entry): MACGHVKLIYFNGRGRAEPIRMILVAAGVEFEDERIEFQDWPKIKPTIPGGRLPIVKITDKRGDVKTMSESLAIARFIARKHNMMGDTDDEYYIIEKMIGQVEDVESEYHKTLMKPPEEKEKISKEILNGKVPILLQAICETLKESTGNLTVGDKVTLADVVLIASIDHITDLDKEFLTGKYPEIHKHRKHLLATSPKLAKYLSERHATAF

What is called AC50 is the concentration at which the activity in the assay is half-maximal. Consider `COC(=O)C1=COC(C)C2CN3CCc4c([nH]c5ccccc45)C3CC12` (configuration not stated), for which the AC50 on Keap1/Nrf2 is > 52 µM (inactive). Moreover, in assay [1], the IC50 is > 100 µM (active).

With `Cc1cccc2c1NC(=O)/C2=C1\Nc2ccc(Br)cc2\C1=N/O`, the IC50 in the assay with Danio rerio is listed as 4.01 µM (not active).

Take `COc1cc(/C=N/Nc2ccc(Cl)c(C(=O)O)c2)ccc1OC(=O)c1ccco1`: the IC50 on Leucine aminopeptidase is 48.8 µM (active); in assay [2], 0.792 µM (active).

For the compound `CCc1c(C)[nH]n(-c2ccc(Oc3ccccc3)c(S(=O)(=O)O)c2)c1=O`, the IC50 in [3] is 157 µM (active); in assay [4] it was 4.83 µM (active); on Genome polyprotein, 84.5 µM (active); in [5], 3.6 µM (active); in assay [6], 3.1 µM (active); in assay [7], 58.8 µM (inactive).

Take `COc1cc2c(cc1C(=O)N1CCN(c3ccc(C(C)=O)cc3)CC1)OCO2`: the AC50 in assay [8] was 13.7 µM (active).

`O=C(/C=C/c1ccc(F)cc1)N1CCN(S(=O)(=O)c2ccc([N+](=O)[O-])cc2)CC1`: the IC50 in assay [9] is 0.0129 µM (active).

On to `C[C@H](CO)N1C[C@H](C)[C@@H](CN(C)CC2CC2)Oc2ccc(NC(=O)Nc3cccc4ccccc34)cc2CC1=O`, for which the AC50 was 1.72 µM (active) in assay [10]; 2.93 µM (active) in assay [11]; 2.09 µM (active) in assay [12]; > 39 µM (inactive) in assay [13]; 3.39 µM (active) in [14].

As for `NC1=CC(=O)c2ccccc2C1=O`, the AC50 in assay [15] was > 70 µM (inactive); in [16] it was 6.75 µM (active); in [17] it was 9.48 µM (active); in [18] it was 4.14 µM (active); in assay [19], > 70 µM (inactive); in assay [20], 1.28 µM (active). The AC50 was 8.76 µM (active) in assay [21]; 5.13 µM (active) in assay [22]; 25.1 µM (active) in [23]; 12.1 µM (active) in assay [24]; 65.7 µM (active) in assay [25]; 9.48 µM (active) in assay [26]. For the same compound, the half-maximal activity concentration (AC50) in assay [27] was 56.9 µM (active); in assay [28], 45.7 µM (active).

The values above are taken from ChEMBL document CHEMBL1201862, “PubChem BioAssay data set” (2004).
